Columns and labels:
Type in all cases: in vivo
[1] = tested on: Ipomoea hederaceae (IPOHE); assay: Post-emergence biological efficacy, glasshouse, 500 or 1000 g/ha, evaluated after 13 days (100=total damage to plant; 0=no damage to plant); conditions: Ipomoea, 312 h, read-out: Percentage damage caused to weed species, post-emergence, IPOHE; for pest or weed control at 1000 g/ha: rate 1,000 g/ha
Method in brief: (§1)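 Weed seeds were sown in standard soil in pots and the plants treated post-emergence. Afterwards they were grown on in a controlled glasshouse at 24/16° C. day/night with 14 hours light and 65% humidity, and watered twice daily.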

[2] = tested on: Setaria faberi (SETFA); assay: as above; conditions: Setaria faberi, 312 h, read-out: Percentage damage caused to weed species, post-emergence, SETFA; for pest or weed control at 1000 g/ha: rate 1,000 g/ha
Method in brief: as §1

[3] = tested on: Alopecurus myosuroides (ALOMY); assay: as above; conditions: Alopecurus myosuroides, 312 h, read-out: Percentage damage caused to weed species, post-emergence, ALOMY; for pest or weed control at 1000 g/ha: rate 1,000 g/ha
Method in brief: as §1

[4] = tested on: Solanum nigrum (SOLNI); assay: as above; conditions: Solanum nigrum, 312 h, read-out: Percentage damage caused to weed species, post-emergence, SOLNI; for pest or weed control at 1000 g/ha: rate 1,000 g/ha
Method in brief: as §1

[5] = tested on: Amaranthus retroflexus (AMARE); assay: as above; conditions: Amaranthus retroflexus, 312 h, read-out: Percentage damage caused to weed species, post-emergence, AMARE; for pest or weed control at 1000 g/ha: rate 1,000 g/ha
Method in brief: as §1

[6] = tested on: Echinochloa crusgaffi (ECHCG); assay: as above; conditions: Echinochloa, 312 h, read-out: Percentage damage caused to weed species, post-emergence, ECHCG; for pest or weed control at 1000 g/ha: rate 1,000 g/ha
Method in brief: as §1

[7] = tested on: Ipomoea hederaceae (IPOHE); assay: Pre-emergence biological efficacy, glasshouse, 1000 g/ha, evaluated after 13 days (100=total damage to plant; 0=no damage to plant); conditions: Ipomoea, 312 h, read-out: Percentage damage caused to weed species, pre-emergence, IPOHE; for pest or weed control at 1000 g/ha: rate 1,000 g/ha
Method in brief: (§2)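 Glasshouse conditions were controlled at 24/16° C. day/night with a 14-hour photoperiod and 65% humidity; pots contained standard soil into which seeds had been sown, and plants were watered twice daily.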

[8] = tested on: Setaria faberi (SETFA); assay: as above; conditions: Setaria faberi, 312 h, read-out: Percentage damage caused to weed species, pre-emergence, SETFA; for pest or weed control at 1000 g/ha: rate 1,000 g/ha
Method in brief: as §2

[9] = tested on: Echinochloa crus-galli (ECHCG); assay: as above; conditions: Echinochloa crus-galli, 312 h, read-out: Percentage damage caused to weed species, pre-emergence, ECHCG; for pest or weed control at 1000 g/ha: rate 1,000 g/ha
Method in brief: as §2

[10] = tested on: Alopecurus myosuroides (ALOMY); assay: as above; conditions: Alopecurus myosuroides, 312 h, read-out: Percentage damage caused to weed species, pre-emergence, ALOMY; for pest or weed control at 1000 g/ha: rate 1,000 g/ha
Method in brief: as §2

[11] = tested on: Solanum nigrum (SOLNI); assay: as above; conditions: Solanum nigrum, 312 h, read-out: Percentage damage caused to weed species, pre-emergence, SOLNI; for pest or weed control at 1000 g/ha: rate 1,000 g/ha
Method in brief: as §2

[12] = tested on: Amaranthus retroflexus (AMARE); assay: as above; conditions: Amaranthus retroflexus, 312 h, read-out: Percentage damage caused to weed species, pre-emergence, AMARE; for pest or weed control at 1000 g/ha: rate 1,000 g/ha
Method in brief: as §2

Cc1cc2c(C(=O)O)nc(-c3ccc(Cl)c(F)c3)nc2n1Cc1ccccc1 [Compound 6-21, 4-Carboxy-2-(4-chloro-3-fluorophenyl)-6-methyl-7-phenylmethyl-7H-pyrrolo[2,3-d]pyrimidine]
0%: pest or weed control at 250 g/ha ([2]; rate 250 g/ha) | pest or weed control at 250 g/ha ([5]; rate 250 g/ha) | pest or weed control at 250 g/ha ([6]; rate 250 g/ha) | pest or weed control at 250 g/ha ([7]; rate 250 g/ha) | pest or weed control at 250 g/ha ([8]; rate 250 g/ha) | pest or weed control at 250 g/ha ([9]; rate 250 g/ha) | pest or weed control at 250 g/ha ([10]; rate 250 g/ha) | pest or weed control at 250 g/ha ([11]; rate 250 g/ha) | pest or weed control at 250 g/ha ([12]; rate 250 g/ha)
10%: pest or weed control at 250 g/ha ([1]; rate 250 g/ha) | pest or weed control at 250 g/ha ([3]; rate 250 g/ha) | pest or weed control at 250 g/ha ([4]; rate 250 g/ha)

COc1c(Cl)ccc(-c2nc(C(=O)O)c3c(C)cn(Cc4ccccc4)c3n2)c1F [Compound 6-63, 7-Benzyl-4-carboxy-2-(4-chloro-2-fluoro-3-methoxyphenyl)-5-methyl-7H-pyrrolo[2,3-d]pyrimidine]
10%: pest or weed control at 1000 g/ha [3]
80%: pest or weed control at 1000 g/ha [5]
60%: pest or weed control at 1000 g/ha [1]
0%: pest or weed control at 1000 g/ha [7] | pest or weed control at 1000 g/ha [8] | pest or weed control at 1000 g/ha [9] | pest or weed control at 1000 g/ha [10] | pest or weed control at 1000 g/ha [11] | pest or weed control at 1000 g/ha [12]
70%: pest or weed control at 1000 g/ha [4]
50%: pest or weed control at 1000 g/ha [2]
40%: pest or weed control at 1000 g/ha [6]

COC(=O)c1nc(-c2ccc(Cl)c(OC)c2F)nc2c1c(C)cn2Cc1ccccc1 [Compound 6-64, 2-(4-Chloro-2-fluoro-3-methoxyphenyl)-4-methoxycarbonyl-5-methyl-7-phenylmethyl-7H-pyrrolo[2,3-d]pyrimidine]
30%: pest or weed control at 1000 g/ha [7]
20%: pest or weed control at 1000 g/ha [5]
0%: pest or weed control at 1000 g/ha [2] | pest or weed control at 1000 g/ha [3] | pest or weed control at 1000 g/ha [6] | pest or weed control at 1000 g/ha [8] | pest or weed control at 1000 g/ha [9] | pest or weed control at 1000 g/ha [10]
70%: pest or weed control at 1000 g/ha [4]
50%: pest or weed control at 1000 g/ha [1] | pest or weed control at 1000 g/ha [11] | pest or weed control at 1000 g/ha [12]

COc1c(Cl)ccc(-c2nc(C(=O)O)c3cc(C)n(Cc4ccccc4)c3n2)c1F [Compound 6-65, 4-Carboxy-2-(4-chloro-2-fluoro-3-methoxyphenyl)-6-methyl-7-phenylmethyl-7H-pyrrolo[2,3-d]pyrimidine]
40%: pest or weed control at 1000 g/ha [1]
0%: pest or weed control at 1000 g/ha [2] | pest or weed control at 1000 g/ha [3] | pest or weed control at 1000 g/ha [6] | pest or weed control at 1000 g/ha [7] | pest or weed control at 1000 g/ha [8] | pest or weed control at 1000 g/ha [9] | pest or weed control at 1000 g/ha [10] | pest or weed control at 1000 g/ha [11] | pest or weed control at 1000 g/ha [12]
80%: pest or weed control at 1000 g/ha [4]
20%: pest or weed control at 1000 g/ha [5]

COC(=O)c1nc(-c2ccc(Cl)c(OC)c2F)nc2c1cc(C)n2Cc1ccccc1 [Compound 6-66, 2-(4-Chloro-2-fluoro-3-methoxyphenyl)-4-methoxycarbonyl-6-methyl-7-phenylmethyl-7H-pyrrolo[2,3-d]pyrimidine]
80%: pest or weed control at 1000 g/ha [4]
0%: pest or weed control at 1000 g/ha [3] | pest or weed control at 1000 g/ha [6] | pest or weed control at 1000 g/ha [7] | pest or weed control at 1000 g/ha [8] | pest or weed control at 1000 g/ha [9] | pest or weed control at 1000 g/ha [10]
20%: pest or weed control at 1000 g/ha [11]
10%: pest or weed control at 1000 g/ha [2] | pest or weed control at 1000 g/ha [12]
40%: pest or weed control at 1000 g/ha [1] | pest or weed control at 1000 g/ha [5]

COc1c(Cl)ccc(-c2nc(C(=O)O)c3c(C)cn(C(C)c4ccccc4)c3n2)c1F (stereo not drawn) [Compound 7-63, 4-Carboxy-2-(4-chloro-2-fluoro-3-methoxyphenyl)-5-methyl-7-(1-phenyl-ethyl)-7H-pyrrolo[2,3-d]pyrimidine]
0%: pest or weed control at 1000 g/ha [3] | pest or weed control at 1000 g/ha [6] | pest or weed control at 1000 g/ha [7] | pest or weed control at 1000 g/ha [8] | pest or weed control at 1000 g/ha [9] | pest or weed control at 1000 g/ha [10] | pest or weed control at 1000 g/ha [11] | pest or weed control at 1000 g/ha [12]
20%: pest or weed control at 1000 g/ha [5]
10%: pest or weed control at 1000 g/ha [1] | pest or weed control at 1000 g/ha [2]
60%: pest or weed control at 1000 g/ha [4]

O=C(O)c1nc(C2CC2)nc2c1ccn2Cc1ccccc1[N+](=O)[O-] [Compound 8-1, 4-Carboxy-2-cyclopropyl-7-(2-nitrophenyl-methyl)-7H-pyrrolo[2,3-d]pyrimidine]
30%: pest or weed control at 1000 g/ha [4]
10%: pest or weed control at 1000 g/ha [6]
0%: pest or weed control at 1000 g/ha [2] | pest or weed control at 1000 g/ha [3] | pest or weed control at 1000 g/ha [5] | pest or weed control at 1000 g/ha [7] | pest or weed control at 1000 g/ha [8] | pest or weed control at 1000 g/ha [9] | pest or weed control at 1000 g/ha [10] | pest or weed control at 1000 g/ha [11] | pest or weed control at 1000 g/ha [12]
40%: pest or weed control at 1000 g/ha [1]

COC(=O)c1nc(C2CC2)nc2c1ccn2Cc1ccccc1[N+](=O)[O-] [Compound 8-2, 2-Cyclopropyl-4-methoxycarbonyl-7-(2-nitrophenyl-methyl)-7H-pyrrolo[2,3-d]pyrimidine]
20%: pest or weed control at 1000 g/ha [1] | pest or weed control at 1000 g/ha [4]
0%: pest or weed control at 1000 g/ha [2] | pest or weed control at 1000 g/ha [3] | pest or weed control at 1000 g/ha [5] | pest or weed control at 1000 g/ha [6] | pest or weed control at 1000 g/ha [7] | pest or weed control at 1000 g/ha [8] | pest or weed control at 1000 g/ha [9] | pest or weed control at 1000 g/ha [10] | pest or weed control at 1000 g/ha [11] | pest or weed control at 1000 g/ha [12]

Cc1cc2c(C(=O)O)nc(C3CC3)nc2n1Cc1ccccc1[N+](=O)[O-] [Compound 8-5, 4-Carboxy-2-cyclopropyl-6-methyl-7-(2-nitrophenyl-methyl)-7H-pyrrolo[2,3-d]pyrimidine]
0%: pest or weed control at 1000 g/ha [1] | pest or weed control at 1000 g/ha [2] | pest or weed control at 1000 g/ha [3] | pest or weed control at 1000 g/ha [4] | pest or weed control at 1000 g/ha [5] | pest or weed control at 1000 g/ha [6] | pest or weed control at 1000 g/ha [7] | pest or weed control at 1000 g/ha [8] | pest or weed control at 1000 g/ha [9] | pest or weed control at 1000 g/ha [10] | pest or weed control at 1000 g/ha [11] | pest or weed control at 1000 g/ha [12]

COC(=O)c1nc(C2CC2)nc2c1cc(C)n2Cc1ccccc1[N+](=O)[O-] [Compound 8-6, 2-Cyclopropyl-4-methoxycarbonyl-6-methyl-7-(2-nitrophenyl-methyl)-7H-pyrrolo[2,3-d]pyrimidine]
50%: pest or weed control at 1000 g/ha [1]
20%: pest or weed control at 1000 g/ha [4] | pest or weed control at 1000 g/ha [5]
0%: pest or weed control at 1000 g/ha [2] | pest or weed control at 1000 g/ha [3] | pest or weed control at 1000 g/ha [6] | pest or weed control at 1000 g/ha [7] | pest or weed control at 1000 g/ha [8] | pest or weed control at 1000 g/ha [9] | pest or weed control at 1000 g/ha [10] | pest or weed control at 1000 g/ha [11] | pest or weed control at 1000 g/ha [12]

From US20120202690A1, “HERBICIDAL COMPOUNDS” (SYNGENTA LIMITED, priority 2009, published 2012)
